Laboratory results from patent US20180118786A1, “NOVEL lNHIBITORS OF THE ENZYME ACTIVATED FACTOR XII (FXIIA)” (ECOLE POLYTECHNIQUE FEDERALE DE LAUSANNE (EPFL), priority 2015, published 2018).
One block for each compound: values may come before it. Starred links: 1 amine or outer side, 2 acyl side, 3 side chain; linkers in the order of their positions; H or OH if unused. Positions of bridges follow the written chain, without caps; N, C: chain ends. Non-standard residues stand in square brackets, D forms with d. Residues, ends and D or L forms follow the SMILES beside them. TATA = O=C(CC[*:1])N1CN(C(=O)CC[*:2])CN(C(=O)CC[*:3])C1; Phe(4-F) = N[C@@H](Cc1ccc(F)cc1)C(=O)O; β3hR = N=C(N)NCCC[C@H](N)CC(=O)O

Key:
Plasma stability assay = details: human
Method: (§6) Peptide (2 μl of 2 mM in H2O) was added to 398 μl human plasma (final peptide concentration was 10 μM in 400 μl final volume). The mixture was incubated in the water bath at 37° C. At 8 different time points (0 h, 30 min, 1 h, 2 h, 4 h, 8 h, 12 h, 24 h and in some cases 48 h) a sample of 30 μl was removed, diluted to 200 μl with the same buffer used for protease inhibition assay (see above) and heat-inactivated for 20 min at 65° C. During this step proteases present in plasma are being inactivated, that would otherwise interfere with the subsequently performed enzymatic assay. […] Before analysis, plasma samples were centrifuged for 5 min at 16′000 g and the supernatant was collected. A twofold dilution series ranging from 0.0005-0.5 μM was prepared. IC50 values were derived from the fitted curve using the equation indicated above. Residual inhibition in % was calculated using the following formula: IC50, 0h/IC50, xh*100 wherein IC50, 0h is the functional strength of the inhibitor at time point 0 and IC50, xh the functional strength of inhibitor after one of the different plasma incubation period mentioned above.
(§7) The activity of the plasma proteases was heat-inactivated by incubation of the samples at 65° C. for 10 minutes.

in vitro = details: human, plasma
Method: as §6, §7

trypsin [1] = molecular target: T1, trypsin (Homo sapiens, UniProt P07477); assay: Specificity testing (Example 2), trypsin; format: biochemical; set-up: purchased Molecular Innovations
Method: (§1) For the specificity testing the following final concentrations of human serine proteases were used: tPA (Molecular Innovations) 7.5 nM, uPA (Molecular Innovations) 1.5 nM, factor XIa (Innovative Research, Novi, Mich., U.S.) 6 nM, PK (Innovative Research) 0.25 nM, thrombin (Molecular Innovations) 1 nM, plasmin (Molecular Innovations) 2.5 nM, trypsin (Molecular Innovations) 0.05 nM, factor VIIa (Haematologic Technologies Inc.) 50 nM and factor Xa (Haematologic Technologies Inc,) 6 nM.
(§2) Dilutions of peptides were prepared ranging from 0.04 to 40 μM.

[2] = system: intrinsic coagulation pathway; assay: aPTT in human plasma (Example 2); format: biochemical
Method: Coagulation times (aPTT, PT) were determined in human plasma using a blood coagulation analyzer (STart. Hemostasis coagulation analyzer, Diagnostica Stago). Extrinsic coagulation was triggered with Innovin (recombinant human tissue factor, synthetic phospholipids and calcium in stabilized HEPES buffer system; Dade Behring; Siemens). Intrinsic coagulation was triggered with Pathromtin* SL (Siemens). Pooled normal human plasma used in this study was provided by Innovative research (USA).
The ability to selectively suppress the intrinsic coagulation pathway was assessed in in vitro coagulation assays. Activated partial thromboplastin time (aPTT) and prothrombin time (PT) measure the time to coagulation upon initiation of coagulation either via the intrinsic (aPTT) or the extrinsic pathway (PT). These tests have been performed in human plasma in the presence of different concentrations of FXIIa-inhibitors. Selective FXIIa inhibition is expected to increase aPTT but not PT. […] At a concentration of 5 μM peptide inhibitor no coagulation via the intrinsic pathway occurred within 120 s. Additionally, there was a correlation between inhibitory activity against FXIIa and extent of aPTT prolongation.

[3] = system: structurally related or functionally important proteases; assay: Specificity testing (Example 2), other proteases; format: biochemical, human
Method: as §1, §2

extrinsic pathway = assay: PT in human plasma (Example 1); format: biochemical; details: 40 μM
Method: (§3) aPTT, PT and FXII coagulant activity (FXII:c) measurements Coagulation times (aPTT, PT) and FXIIa activity were determined in human plasma using an automated blood coagulation analyzer (Sysmex CS-5100, Siemens, Eschborn, Germany) with according to the manufacturer's instructions (Siemens). Extrinsic coagulation was triggered with Innovin® (recombinant human tissue factor, synthetic phospholipids and calcium in stabilized HEPES buffer system; Dade Behring/Simens). Intrinsic coagulation was triggered with Pathromtin* SL (Siemens). Human plasma used in this study was derived from a pool of fresh frozen plasma units provided by the Service Regional Vaudois de Transfusion Sanguine, Switzerland.
(§4) Coagulation times (aPTT, PT) and FXIIa activity were determined, at least in duplicate, in human plasma using an automated blood coagulation analyzer (Sysmex CA-7000) with standard reagents according to the manufacturer's instructions (Siemens Healthcare, Eschborn, Germany). Human plasma used in this study was derived from a pool of fresh frozen plasma units provided by the Service Regional Vaudois de Transfusion Sanguine, Switzerland.

[4] = system: intrinsic pathway of coagulation; assay: aPTT in human plasma (Example 1); format: biochemical
Method: as §3, §4

FXII activity = molecular target: T2, FXII activity (Mus musculus, UniProt Q80YC5); assay: Inhibition of FXII activity in vivo; set-up: species or system BALB/c mice; details: mice
T2 construct: from tissue; host or cells: plasma of BALB/c mice after injection
T2 sequence (Q80YC5 20-597): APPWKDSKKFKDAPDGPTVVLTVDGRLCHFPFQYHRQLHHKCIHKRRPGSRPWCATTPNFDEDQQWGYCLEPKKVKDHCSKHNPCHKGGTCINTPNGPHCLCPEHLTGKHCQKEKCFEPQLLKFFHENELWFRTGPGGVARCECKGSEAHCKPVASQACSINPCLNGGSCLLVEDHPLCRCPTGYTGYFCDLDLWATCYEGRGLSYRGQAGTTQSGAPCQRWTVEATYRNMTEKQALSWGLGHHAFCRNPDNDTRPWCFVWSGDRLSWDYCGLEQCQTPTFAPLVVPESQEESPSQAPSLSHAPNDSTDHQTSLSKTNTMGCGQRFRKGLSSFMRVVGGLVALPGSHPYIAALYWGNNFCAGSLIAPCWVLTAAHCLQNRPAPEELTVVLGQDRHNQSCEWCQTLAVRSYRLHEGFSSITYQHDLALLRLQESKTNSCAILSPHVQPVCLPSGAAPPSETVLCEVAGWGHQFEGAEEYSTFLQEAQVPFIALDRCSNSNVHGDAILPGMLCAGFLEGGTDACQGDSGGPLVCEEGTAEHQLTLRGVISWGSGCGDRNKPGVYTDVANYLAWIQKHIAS
Method: Female BALB/c mice were anesthetized with 125 mg/kg pentobarbital. […] Five minutes later, blood was collected from the vena cava at a 1:9 blood to citrate ratio. Plasma was prepared by centrifugation at 2,400 g 10 minutes at RT. FXIIa activity was assessed as described above.

[5] = system: thrombin generation in platelet poor plasma; assay: Thrombin generation assay by CAT, TF-triggered or without trigger; format: biochemical, human; set-up: lag time: unit not given here
Method: (§5) Thrombin generation was performed as previously described with some modifications.30 In brief, 60 μL platelet poor plasma (PPP), 20 μL FXIIa inhibitor/HA buffer (Hepes 20 mM, NaCl 140 mM, pH 7.4, 5 mg/mL BSA), and 20 μL PPP reagent, PPP LOW reagent, MP reagent or Actin FS (1:170 diluted in HA buffer) were mixed in a 96-well microtiter plate (Immulon 2HB; Thermo Fisher Scientific) and incubated for 15 min at 37° C. Thrombin generation was triggered by the addition of 20 μL of substrate/calcium chloride buffer (FLUKA) at 37° C. Samples were tested in triplicate for each condition. Fluorogenic thrombin substrate hydrolysis was measured every 20 s for 120 min on a microplate fluorometer (Fluoroskan Ascent FL; Thermo Fisher Scientific) with a 390/460-nm (excitation/emission) filter set. Data analysis was performed on the Thrombinoscope software (Synapse By). PPP reagent (TF […], PL 4 μM), PPP LOW reagent (TF […], PL 4 μM), MP reagent (PL 4 μM), thrombin calibrator and FLUKA were purchased from Synapse By.
Venous blood was collected from healthy volunteers by antecubital venipuncture with 19-gauge needles in 3,2% (w/v) citrated Monovette plastic tubes. In order to minimize contact activation, the first collection tube containing EDTA was discarded according to standard procedures. […] Blood was then processed to PPP by an initial centrifugation step at 2,000 g for 5 min followed by a second centrifugation step at 10,000 g for 10 min. Plasma aliquots were stored at −80 until analysis.

trypsin [6] = molecular target: T1, trypsin; assay: Specificity FXII618 vs CTI, trypsin; format: biochemical
[7] = system: thrombin generation in platelet poor plasma; assay: Thrombin generation assay by CAT, TF-triggered or without trigger; format: biochemical, human; details: 1 pM TF, 100 μg/mL inhibitor
human β-FXIIa = molecular target: T3, human β-FXIIa (Homo sapiens, UniProt P00748); assay: Protease inhibition assay with fluorogenic substrate (Example 1); format: biochemical
T3 construct: human β-FXIIa, a naturally occurring proteolytic product of FXIIa comprising only the catalytic domain; purchased Molecular Innovations HFXIIAB
Method: The inhibitory activity of bicyclic peptides was determined by incubation with proteases and quantification of their residual activity with a fluorogenic substrate. Final concentration of human b-FXIIa (HFXIIAB; Molecular Innovations) and mouse α-FXIIa (MFXIIA; Molecular Innovations) was 10 nM. Dilutions of peptides were prepared ranging from 0.2-200 mM. Fluorescence intensity was measured with an Infinite M200Pro fluorescence plate reader (excitation at 355 nm, emission at 460 nm; Tecan, Männedorf, Switzerland). The reactions were performed at RT. Sigmoidal curves were fitted to the data using the following dose response equation wherein x=peptide concentration, y=% activity of reaction without peptide, A1=100%, A2=0%, p=1. IC50 values were derived from the fitted curve.
The inhibitory constant Ki was calculated according to the equation of Cheng and Prusoff^29 Ki=/050/(1+([S]0/Km) wherein IC50 is the functional strength of the inhibitor, [S]0 is the total substrate concentration, and Km is the Michaelis-Menten constant.

[8] = system: intrinsic pathway (contact activation); assay: Thrombin generation assay by CAT triggered by ellagic acid; format: biochemical, human; details: ellagic acid trigger, 20 μg/mL
Method: as §5

FXII = molecular target: T4, FXII (Homo sapiens, UniProt P00748); assay: FXII coagulant activity (FXII:c) in human plasma; format: biochemical; details: 50 μM
T4 construct: from tissue; host or cells: pooled fresh frozen human plasma
T4 sequence (P00748 20-615): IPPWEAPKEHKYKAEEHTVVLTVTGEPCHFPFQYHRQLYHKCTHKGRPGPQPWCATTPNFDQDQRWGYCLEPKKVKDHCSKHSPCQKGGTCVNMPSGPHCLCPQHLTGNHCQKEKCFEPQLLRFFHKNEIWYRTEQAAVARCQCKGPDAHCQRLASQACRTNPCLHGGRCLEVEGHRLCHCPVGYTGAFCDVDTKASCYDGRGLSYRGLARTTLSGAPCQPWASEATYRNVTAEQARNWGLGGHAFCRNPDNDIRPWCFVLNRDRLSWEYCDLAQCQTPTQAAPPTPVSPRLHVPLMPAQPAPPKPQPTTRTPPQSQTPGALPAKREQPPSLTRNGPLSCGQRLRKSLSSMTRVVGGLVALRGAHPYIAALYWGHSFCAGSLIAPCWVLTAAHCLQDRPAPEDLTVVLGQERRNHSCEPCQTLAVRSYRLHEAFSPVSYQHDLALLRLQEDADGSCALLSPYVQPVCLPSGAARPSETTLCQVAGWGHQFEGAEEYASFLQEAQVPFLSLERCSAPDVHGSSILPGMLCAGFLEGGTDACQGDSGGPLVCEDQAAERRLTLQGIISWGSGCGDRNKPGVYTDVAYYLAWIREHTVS
Method: as §3, §4

[9] = absence of extrinsic- or intrinsic-specific trigger, 100 μg/mL inhibitor

SMILES: CC(C)C[C@@H]1NC(=O)[C@H](CCC(N)=O)NC(=O)[C@H](Cc2c[nH]cn2)NC(=O)[C@@H]2CSCCC(=O)N3CN(CN(C3)C(=O)CCSC[C@H](NC(=O)[C@@H](CO)NC(=O)[C@H](N)CCCNC(=N)N)C(=O)N[C@@H](Cc3ccc(F)cc3)C(=O)N[C@@H](CCCNC(=N)N)C(=O)N[C@@H](CC(C)C)C(=O)N3CCC[C@H]3C(=O)N2)C(=O)CCSC[C@@H](C(N)=O)NC(=O)C[C@H](CCCNC(=N)N)NC1=O [JS33-R] (H-[dR][dS]C[Phe(4-F)]RLPCHQL[β3hR]C-NH2; linker 3-8-13 via TATA; N-terminus and C-terminus assumed)
half-life at 10 μM (Plasma stability assay): 127 h

half-life at 10 μM (in vitro): 15.5 ± 3.9 h | selectivity over trypsin (trypsin [1]): 300 fold
SMILES: CC(C)C[C@@H]1NC(=O)[C@H](CCC(N)=O)NC(=O)[C@H](CCCNC(=N)N)NC(=O)[C@@H]2CSCCC(=O)N3CN(CN(C3)C(=O)CCSC[C@H](NC(=O)[C@@H](N)CCNC(=N)N)C(=O)N[C@@H](Cc3ccc(F)cc3)C(=O)N[C@@H](CCCNC(=N)N)C(=O)N[C@@H](CC(C)C)C(=O)N3CCC[C@H]3C(=O)N2)C(=O)CCSC[C@@H](C(=O)N[C@@H](CCCNC(=N)N)C(N)=O)NC(=O)[C@H](CCCNC(=N)N)NC1=O [peptide 73]
aPTT prolongation compared with peptide 1 [2]: significantly increased aPTT prolongation | selectivity over other plasma proteases [3]: ≥ 11,000 fold | inhibition of eight of the ten proteases ([3]; highest concentration tested (40 μM)): less than 20%

half-life at 10 μM (in vitro): 3.9 ± 1.9 h | PT (FXII activity; 3.5 mg/kg FXII618 combined with 3.5 mg/kg PK128): 7.1 ± 0.2 s | FXII activity (FXII activity; 3.5 mg/kg FXII618 combined with 3.5 mg/kg PK128 r.o., blood after five minutes): 49.7+/−13.9% | inhibition of trypsin (trypsin [6]; at a concentration as high as 1000 nM): no inhibition | trypsin inhibition weaker compared to CTI (trypsin [6]; compared to CTI): around 100 fold | more potent than PCK (human β-FXIIa; compared to PCK): around 8 fold | more potent than inhibitor 44 (human β-FXIIa; compared to small molecule FXIIa inhibitor 44): > 200 fold | improvement in inhibiting human FXIIa (human β-FXIIa; in comparison to parent FXII516): 8 fold | FXII coagulant activity (FXII:c) (FXII): < 5%
SMILES: CC(C)C[C@@H]1NC(=O)[C@H](CCC(N)=O)NC(=O)[C@H](CCCNC(=N)N)NC(=O)[C@@H]2CSCCC(=O)N3CN(CN(C3)C(=O)CCSC[C@H](NC(=O)[C@@H](N)CCCNC(=N)N)C(=O)N[C@@H](Cc3ccccc3)C(=O)N[C@@H](CCCNC(=N)N)C(=O)N[C@@H](CC(C)C)C(=O)N3CCC[C@H]3C(=O)N2)C(=O)CCSC[C@@H](C(=O)N[C@@H](CCCNC(=N)N)C(N)=O)NC(=O)[C@H](CCCNC(=N)N)NC1=O [FXII618]
effect on extrinsic pathway (PT) (extrinsic pathway): without affecting the extrinsic pathway | aPTT ([4]; citrated platelet poor plasma, 100 μg/mL inhibitor): > 170 s | aPTT ([4]; human plasma, 40 μM): > 170 s | lag time ([5]; 0.25 pM TF, 100 μg/mL inhibitor): 12.3±0.3 | lag time [5, 9]: 55.8±3.7 | peak [5, 9]: 60.3±0.8 | effect on TF-induced thrombin generation ([5]; high concentration of TF, 100 μg/mL inhibitor): did not affect TF-induced thrombin generation | thrombin activation ([5]; inhibitor added to whole blood immediately after sampling, no trigger): completely block thrombin activation | effect on thrombin generation [7]: no significant effect | reduction of endogenous thrombin potential (ETP) [8]: > 90% | reduction of peak [8]: > 90%
